Columns and labels:
[1] = system: mice (C57BL/6, female); experiment: Assessment of anagen phase induction and promotion in shaved mice; format: in vivo
Procedure: Experimentation for effects of inducing and promoting an anagen phase (that is, hair growth period) was performed with 7 weeks-old mice (C57BL/6, female) widely used in assessment of activity for anagen phase induction. First, using an electric shaver, hair on the dorsal part of a mouse was removed. Each mouse was weighed and all mice were divided into groups, each group having five (5) mice, in order to uniformly disperse body weights of the mice. Hair cut regions were coated with an excipient, control and test medicine, respectively. In this regard, the excipient was 95% ethanol, the control was 2% minoxidil, and the test medicine used herein was the compound in Example 8 diluted with 95% ethanol to have a final concentration of 0.5%. Using a brush, each of the above test samples was sufficiently applied to the dorsal part of each mouse once per day.

[2] = system: 5α-reductase; experiment: 5α-reductase inhibitory efficacy: DHT produced in testosterone-stimulated dermal papilla cells (DHT ELISA); format: cell-based; details: 50 nM testosterone, 24 hours, produced DHT relative to control
Procedure: After seeding 1 ml of dermal papilla cells (DPCs) by 5×10^5/ml into each well of a 24-well plate, then incubating the same for 24 hours, each of the reaction products prepared according to procedures described in Examples 1 to 72 was added in amounts of 50 μg/ml, 10 μg/ml and 0 μg/ml, respectively, to individual wells. After 1 hour, the wells were subjected to stimulation using 50 nM testosterone (DMSO dissolved). The supernatant was discarded 24 hours after culturing, to thus obtain DPc pellets. A content of dihydrotestosterone (DHT) (DB52021, Hamburg, Germany) was determined by means of enzyme-linked immune-sorbent assay. DPCs cell pellets were seeded in an amount of 100 μL into each of Dihydrotestosterone (DHT) ELISA microtiter strips coated with rabbit anti-DHT antibody, 25 μL of DHT antiserum was seeded in every well, and subjected to a reaction at 2 to 8° C. for 15 to 20 hours, followed by washing the same three times. Thereafter, 100 μL of DHT-HRP enzyme conjugate was seeded in every well and reacted on a shaker at room temperature for 30 minutes, followed by washing the same three times. Furthermore, 100 μL of substrate was seeded in every well and reacted on a shaker at room temperature for 20 to 30 minutes. Then, the product was treated using 100 μL stop solution, and subjected to measurement of absorbance at 450 nm to express an amount of produced DHT by the absorbance (three times repeated). An amount of produced DHT relative to a control was calculated in terms of an inhibitory rate (%), and results thereof are shown in Table 3 below.

[3] = 20 days after experimentation, topical once per day on shaved dorsal part, five mice per group, Minoxidil 2%, Example 8 0.5% in 95% ethanol

| Molecule | Number of mouse graded + (improved) [1, 3] | Number of mouse graded ++ (remarkably improved) [1, 3] | Number of mouse graded ± (slightly improved) [1, 3] | Number of mouse graded − (not changed) [1, 3] | 5α-reductase inhibitory rate (%) ([2]; sample concentration 10 μg/ml) | 5α-reductase inhibitory rate (%) ([2]; sample concentration 50 μg/ml) | hair growth in the hair cut region (in words) ([1]; 0.5% in 95% ethanol, topical once per day, Table 4 and FIG. 1) |
| --- | --- | --- | --- | --- | --- | --- | --- |
| Nc1cc(N2CCCCC2)nc(N)[n+]1[O-] [Minoxidil, minoxidil, reference compound] | 1 | 2 | 1 | 1 | – | – | – |
| β-amyrin laurate [Compound in Example 6] | – | – | – | – | 43 | 59 | – |
| β-amyrin stearate [Compound in Example 8] | 1 | 3 | 1 | – | 48 | 63 | rapid hair growth |
| β-boswellic acid stearate [Compound in Example 31] | – | – | – | – | 31 | 47 | – |
